Each compound was assayed against FGFR2 (Homo sapiens, UniProt P21802) (assay: FGFR wild type enzyme assay (HTRF KinEASE-TK), FGFR2). Conditions: Enz FGFR2 (nM), FGFR2 wild type enzyme assay.
Chain of FGFR2 (P21802 399-821 limits assumed): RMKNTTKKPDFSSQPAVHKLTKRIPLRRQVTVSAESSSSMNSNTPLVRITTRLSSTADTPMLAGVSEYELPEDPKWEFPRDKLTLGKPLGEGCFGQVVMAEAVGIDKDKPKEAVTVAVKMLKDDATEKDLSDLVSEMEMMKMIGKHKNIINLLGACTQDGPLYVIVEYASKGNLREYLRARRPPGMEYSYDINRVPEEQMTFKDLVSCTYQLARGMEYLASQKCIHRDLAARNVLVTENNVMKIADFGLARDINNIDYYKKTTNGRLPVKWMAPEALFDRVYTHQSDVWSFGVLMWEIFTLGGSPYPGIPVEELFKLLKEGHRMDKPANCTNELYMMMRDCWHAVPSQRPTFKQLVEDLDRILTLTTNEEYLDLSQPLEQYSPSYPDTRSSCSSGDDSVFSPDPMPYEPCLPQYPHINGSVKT

| SMILES | IC50 |
| --- | --- |
| N#Cc1cc(F)ccc1Sc1cc(-c2ccc(N3CCC(O)CC3)nc2)cn2ncc(C#N)c12 [Example 586, 4-((2-cyano-4-fluorophenyl)thio)-6-(6-(4-hydroxypiperidin-1-yl)pyridin-3-yl)pyrazolo[1,5-a]pyridine-3-carbonitrile] | 1 nM |
| Cn1ccc(-c2cc(Sc3ccc(F)cc3C#N)c3c(C#N)cnn3c2)cc1=O [Example 587, 4-((2-cyano-4-fluorophenyl)thio)-6-(1-methyl-2-oxo-1,2-dihydropyridin-4-yl)pyrazolo[1,5-a]pyridine-3-carbonitrile] | 43 nM |
| N#Cc1ccccc1Sc1cc(-c2cnn(CC(F)(F)F)c2)cn2ncc(C#N)c12 [Example 588] | 2 nM |
| Cc1c(-c2cc(Sc3ccccc3C#N)c3c(C#N)cnn3c2)cnn1C1CCN(C(=O)C(C)(C)O)CC1 [Example 589, 4-((2-cyanophenyl)thio)-6-(1-(1-(2-hydroxy-2-methylpropanoyl)piperidin-4-yl)-5-methyl-1H-pyrazol-4-yl)pyrazolo[1,5-a]pyridine-3-carbonitrile] | 1 nM |
| C[C@@H](O)C(=O)N1CCC[C@H](n2cc(-c3cc(Sc4ccccc4C#N)c4c(C#N)cnn4c3)cn2)C1 [Example 590, 4-((2-cyanophenyl)thio)-6-(1-((S)-1-((R)-2-hydroxypropanoyl)piperidin-3-yl)-1H-pyrazol-4-yl)pyrazolo[1,5-a]pyridine-3-carbonitrile] | 0.5 nM |
| N#Cc1ccccc1Sc1cc(-c2cnn([C@@H]3CCNC(=O)C3)c2)cn2ncc(C#N)c12 [Example 591, (R)-4-((2-cyanophenyl)thio)-6-(1-(2-oxopiperidin-4-yl)-1H-pyrazol-4-yl)pyrazolo[1,5-a]pyridine-3-carbonitrile] | 0.4 nM |
| N#Cc1ccccc1Sc1cc(-c2cnn([C@H]3CCNC(=O)C3)c2)cn2ncc(C#N)c12 [Example 592, (S)-4-((2-cyanophenyl)thio)-6-(1-(2-oxopiperidin-4-yl)-1H-pyrazol-4-yl)pyrazolo[1,5-a]pyridine-3-carbonitrile] | 1 nM |
| N#Cc1cc(F)ccc1Sc1cc(-c2ccc(N3CCNCC3)nc2)cn2ncc(C#N)c12 [Example 595, 4-((2-cyano-4-fluorophenyl)thio)-6-(6-(piperazin-1-yl)pyridin-3-yl)pyrazolo[1,5-a]pyridine-3-carbonitrile] | 15 nM |
| CN(CC(O)CO)c1ccc(-c2cc(Sc3ccc(F)cc3C#N)c3c(C#N)cnn3c2)cn1 (stereo not shown) [Example 596, 4-((2-cyano-4-fluorophenyl)thio)-6-(6-((2,3-dihydroxypropyl)(methyl)amino)pyridin-3-yl)pyrazolo[1,5-a]pyridine-3-carbonitrile] | 1 nM |
| CC(=O)N1CCN(c2nnc(-c3cc(Sc4ccccc4C#N)c4c(C#N)cnn4c3)s2)CC1 [Example 600, 6-(5-(4-acetylpiperazin-1-y)-1,3,4-thiadiazol-2-yl)-4-((2-cyanophenyl)thio)pyrazolo [1,5-a]pyridine-3-carbonitrile] | 6 nM |
| CC(=O)N1CCN(c2ncc(-c3cc(Sc4ccccc4C#N)c4c(C#N)cnn4c3)o2)CC1 [Example 601, 6-(2-(4-acetylpiperazin-1-yl)oxazol-5-yl)-4-((2-cyanophenyl)thio)pyrazolo [1,5-a]pyridine-3-carbonitrile] | 53 nM |
| N#Cc1ccccc1Sc1cc(-c2cnn([C@@H]3CCN(CCO)C3)c2)cn2ncc(C#N)c12 [Example 603, (R)-4-((2-cyanophenyl)thio)-6-(1-(1-(2-hydroxyethyl)pyrrolidin-3-yl)-1H-pyrazol-4-yl)pyrazolo[1,5-a]pyridine-3-carbonitrile] | 0.6 nM |
| C[C@@H](O)C(=O)N1CC[C@@H](n2cc(-c3cc(Sc4ccccc4C#N)c4c(C#N)cnn4c3)cn2)C1 [Example 605, 4-((2-cyanophenyl)thio)-6-(1-((R)-1-((R)-2-hydroxypropanoyl)pyrroli-din-3-yl)-1H-pyrazol-4-yl)pyrazolo[1,5-a]pyridine-3-carbonitrile] | 0.6 nM |
| C[C@H](O)C(=O)N1CC[C@@H](n2cc(-c3cc(Sc4ccccc4C#N)c4c(C#N)cnn4c3)cn2)C1 [Example 606, 4-((2-cyanophenyl)thio)-6-(1-((R)-1-((S)-2-hydroxypropanoyl)pyrrolidin-3-yl)-1H-pyrazol-4-y)pyrazolo[1,5-a]pyridine-3-carbonitrile] | 0.5 nM |
| N#Cc1ccccc1Sc1cc(-c2cnn(-c3cn[nH]c3)c2)cn2ncc(C#N)c12 [Example 609, 6-(1′H-[1,4′-bipyrazol]-4-yl)-4-((2-cyanophenyl)thio)pyrazolo [1,5-a]pyridine-3-carbonitrile] | 4 nM |
| CN1CCN(c2ccc(-c3cc(Sc4ccc(F)cc4C#N)c4c(C#N)cnn4c3)cn2)CC1=O [Example 610, 4-((2-cyano-4-fluorophenyl)thio)-6-(6-(4-methyl-3-oxopiperazin-1-yl)pyridin-3-yl)pyrazolo[1,5-a]pyridine-3-carbonitrile] | 2 nM |
| N#Cc1cc(F)ccc1Sc1cc(-c2ccc(N3C[C@H](O)[C@@H](O)C3)nc2)cn2ncc(C#N)c12 [Example 611, 4-((2-cyano-4-fluorophenyl)thio)-6-(6-((3S,4S)-3,4-dihydroxypyrrolidin-1-yl)pyridin-3-yl)pyrazolo[1,5-a]pyridine-3-carbonitrile] | 3 nM |
| CN(C)c1ccc(-c2cc(Sc3ccc(F)cc3C#N)c3c(C#N)cnn3c2)cn1 [Example 612, 4-((2-cyano-4-fluorophenyl)thio)-6-(6-(dimethylamino)pyridin-3-yl)pyrazolo[1,5-a]pyridine-3-carbonitrile] | 2 nM |
| Cn1cc(-c2cc(Sc3ncccc3F)c3c(C#N)cnn3c2)c(N)n1 [Example 617, 6-(3-amino-1-methyl-1H-pyrazol-4-yl)-4-((3-fluoropyridin-2-yl)thio)pyrazolo[1,5-a]pyridine-3-carbonitrile] | 6 nM |

Second part, the compound after the results:

| IC50 | SMILES |
| --- | --- |
| 1 nM | CC1(C)CC[C@H](n2cc(-c3cc(Sc4ccccc4C#N)c4c(C#N)cnn4c3)cn2)CN1 [Example 593, (S)-4-((2-cyanophenyl)thio)-6-(1-(6,6-dimethylpiperidin-3-yl)-1H-pyrazol-4-yl)pyrazolo[1,5-a]pyridine-3-carbonitrile] |
| 1 nM | CC1(C)CC[C@@H](n2cc(-c3cc(Sc4ccccc4C#N)c4c(C#N)cnn4c3)cn2)CN1 [Example 594, (R)-4-((2-cyanophenyl)thio)-6-(1-(6,6-dimethylpiperidin-3-yl)-1H-pyrazol-4-yl)pyrazolo[1,5-a]pyridine-3-carbonitrile] |
| 30 nM | Cc1cccc(C#N)c1Sc1cc(-c2cnn(C)c2)cn2ncc(C#N)c12 [Example 597, 4-((2-cyano-6-methylphenyl)thio)-6-(1-methyl-1H-pyrazol-4-yl)pyrazolo[1,5-a]pryidine-3-carbonitrile] |
| 1 nM | CN(C)CCn1cc(-c2cc(Sc3ccccc3C#N)c3c(C#N)cnn3c2)cn1 [Example 598, 4-((2-cyanophenyl)thio)-6-(1-(2-(dimethylamino)ethyl)-1H-pyrazol-4-yl)pyrazolo[1,5-a]pryidine-3-carbontrile] |
| 2 nM | N#Cc1ccccc1Sc1cc(-c2cnn([C@H]3CCCC[C@H]3O)c2)cn2ncc(C#N)c12 [Example 599, 4-((2-cyanophenyl)thio)-6-(1-((1S,2R)-2-hydroxycyclohexyl)-1H-pyrazol-4-yl)pyrazolo[1,5-a]pyridine-3-carbonitrile] |
| 0.5 nM | CN1CC[C@@H](n2cc(-c3cc(Sc4ccccc4C#N)c4c(C#N)cnn4c3)cn2)C1 [Example 604, (R)-4-((2-cyanophenyl)thio)-6-(1-(1-methylpyrrolidin-3-yl)-1H-pyrazol-4-yl)pyrazolo[1,5-a]pyridine-3-carbonitrile] |
| 10 nM | N#Cc1ccccc1Sc1cc(-c2cnn(C(F)(F)F)c2)cn2ncc(C#N)c12 [Example 607, 4-((2-cyanophenyl)thio)-6-(1-(trifluoromethyl)-1H-pyrazol-4-yl)pyrazolo[1,5-a]pyridine-3-carbonitrile] |
| 2 nM | Cn1ncc(-c2cc(Sc3ccccc3C#N)c3c(C#N)cnn3c2)c1N [Example 608, 6-(5-amino-1-methyl-1H-pyrazol-4-yl)-4-((2-cyanophenyl)thio)pyrazolo [1,5-a]pyridine-3-carbonitrile] |
| 1 nM | N#Cc1ccccc1Sc1cc(-c2cnn(CC(F)F)c2)cn2ncc(C#N)c12 [Example 613, 4-((2-cyanophenyl)thio)-6-(1-(2,2-difluoroethyl)-1H-pyrazol-4-yl)pyrazolo[1,5-a]pyridine-3-carbonitrile] |
| 9 nM | Cc1c(-c2cc(Sc3ccccc3C#N)c3c(C#N)cnn3c2)cnn1C [Example 614, 4-((2-cyanophenyl)thio)-6-(1,5-dimethyl-1H-pyrazol-4-yl)pyrazolo[1,5-a]pyridine-3-carbonitrile] |
| 2 nM | Cc1nc(Sc2cc(-c3cnn(C)c3)cn3ncc(C#N)c23)c(F)cc1F [Example 615, 4-((3,5-difluoro-6-methylpyridin-2-yl)thio)-6-(1-methyl-1H-pyrazol-4-yl)pyrazolo[1,5-a]pyridine-3-carbonitrile] |
| 6 nM | Cn1cc(-c2cc(Sc3ccccn3)c3c(C#N)cnn3c2)cn1 [Example 616, 6-(1-methyl-1H-pyrazol-4-yl)-4-(pyridin-2-ylthio)pyrazolo[1,5-a]pyridine-3-carbonitrile] |
| 0.4 nM | CN1CC[C@@H](n2cc(-c3cc(Sc4ccccc4C#N)c4c(C#N)cnn4c3)cn2)CC1=O [Example 618, (R)-4-((2-cyanophenyl)thio)-6-(1-(1-methyl-2-oxopiperidin-4-yl)-1H-pyrazol-4-yl)pyrazolo[1,5-a]pyridine-3-carbonitrile] |
| 2 nM | CN1CC[C@H](n2cc(-c3cc(Sc4ccccc4C#N)c4c(C#N)cnn4c3)cn2)CC1=O [Example 619, (S)-4-((2-cyanophenyl)thio)-6-(1-(1-methyl-2-oxopiperidin-4-yl)-1H-pyrazol-4-yl)pyrazolo[1,5-a]pyridine-3-carbonitrile] |

Same assay, conditions: read-out: Enz FGFR2; FGFR2 wild type enzyme assay

| IC50 | SMILES |
| --- | --- |
| 2 nM | CC(=O)O[C@H]1CC[C@H](n2ncc(-c3cc(Sc4ccc(F)cc4C#N)c4c(C#N)cnn4c3)c2C)CC1 [Example 602, (1r,4r)-4-(4-(3-cyano-4-((2-cyano-4-fluorophenyl)thhio)pyrazolo [1,5-a]pyridin-6-yl)-5-methyl-1H-pyrazol-1-yl)cyclohexyl acetate] |
